Converted amounts (≈) assume the structure as drawn.
Settings: buffer; pH 7.4; 200.0 µM

Compared with `COc1ccccc1CNC(=O)c1cc(-c2cccnc2)nc2ccccc12`, `COc1ccccc1C(=O)Nc1cccc2nc(C)ccc12` is 56-fold higher in solubility kinetic: 0.7 µg/mL (≈ 1.89 µM) for the first, 39.1 µg/mL (≈ 134 µM) for the second.

Going from `CCC(=O)NC(Cc1ccccc1)c1nc2ccccc2[nH]1` (stereo not given) to `CC(=O)NC1c2ccccc2C(=O)N1Cc1ccccc1` (stereo not given), the solubility kinetic falls from greater than 44 µg/mL to 39.9 µg/mL (≈ 142 µM).

`COc1ccc2nc(SC)c(C#N)cc2c1` and `COc1ccc2cc3cc(C(=O)NCCC(C)C)oc3nc2c1` cannot be ordered by solubility kinetic: less than 0.2 µg/mL for the first, less than 0.3 µg/mL for the second.

Going from `CCCC(CCC)C(=O)Nc1cccc(-c2cn3c(n2)SCC3)c1` to `CC(=O)Nc1cccc(C(=O)Nc2nc(C)cs2)c1`, the solubility kinetic rises from 4 µg/mL (≈ 11.6 µM) to 37.4 µg/mL (≈ 136 µM) (9.3-fold).

Going from `Cc1ccc(-c2nc(C=Nc3cccc(C)c3)c(O)o2)cc1` to `COc1ccc(NC(=O)CN2C(=O)C(C)Oc3ccc(C)cc32)cc1` (stereo not given), the solubility kinetic rises from 0.7 µg/mL (≈ 2.39 µM) to 9.6 µg/mL (≈ 28.2 µM) (14-fold).

Going from `O=[N+]([O-])c1ccc(S(=O)(=O)Nc2nc(-c3ccccc3)cs2)cc1` to `Cc1csc(NS(=O)(=O)c2ccc(Cl)cc2)n1`, the solubility kinetic falls from greater than 54.2 µg/mL to 42.4 µg/mL (≈ 147 µM).

`Cl.O=C(CCl)N1CCN(CC(=O)N2CCCC2)CC1` and `O=C(/C=C/c1ccc([N+](=O)[O-])cc1)OCC(=O)N1CCCC1` cannot be ordered by solubility kinetic: greater than 46.5 µg/mL for the first, greater than 45.6 µg/mL for the second.

`COC(=O)c1sccc1NC(=O)Nc1ccc(C(C)=O)cc1` and `Cc1c(C(=O)OCC(=O)Nc2ccc(C(=O)N(C)C)cc2)oc2ccccc12` are within 1.5-fold of each other in solubility kinetic: 8.4 µg/mL (≈ 26.4 µM) for the first, 6.6 µg/mL (≈ 17.4 µM) for the second.

First: CN(C)c1ccc(C=NCC2COc3ccccc3O2)cc1 (stereo not given)
Second: COC(=O)c1ccc(/C=C(\C#N)c2ccccn2)cc1
The solubility kinetic of the first is higher: greater than 44.5 µg/mL for the first, 1.8 µg/mL (≈ 6.81 µM) for the second.

`CC1CC(C)CN(C(=O)CN2C(=O)NC3(CCCCCC3)C2=O)C1` (stereo not given) and `CC1(C)C2CCC(C2)C1(C)NC(=O)CN1CCCC1.Cl` (stereo not given) cannot be ordered by solubility kinetic: greater than 50.3 µg/mL for the first, greater than 45.1 µg/mL for the second.

First: O=C(NC(N1CCOCC1)C(Cl)(Cl)Cl)c1ccc(F)cc1 (stereo not given)
Second: O=C(/C=C/c1c(F)cccc1Cl)NCCCN1CCOCC1
The solubility kinetic of the first is lower: 41.1 µg/mL (≈ 116 µM) for the first, greater than 49 µg/mL for the second.

Compared with `CC1(C)CC2(CCO1)OC(=O)CC2C(=O)Nc1c(Cl)cccc1Cl` (stereo not given), `O=C(CC1SC(N2CCOCC2)=NC1=O)Nc1ccc(Cl)c(C(F)(F)F)c1` (stereo not given) is 12-fold lower in solubility kinetic: 52.9 µg/mL (≈ 142 µM) for the first, 4.4 µg/mL (≈ 10.4 µM) for the second.

`Cc1[nH]c(=O)[nH]c(=O)c1NC(=O)c1ccc(OC(C)C)cc1` and `CCc1nc(N[C@H](C(=O)O)C(C)C)c2oc3ccccc3c2n1` cannot be ordered by solubility kinetic: greater than 45.5 µg/mL for the first, greater than 47 µg/mL for the second.

Compared with `COc1cccc(COc2ncnc3sccc23)c1`, `COc1ccc(-c2ncncc2-c2ccc(OC)c(OC)c2)c(O)c1` is higher in solubility kinetic: 37.2 µg/mL (≈ 137 µM) for the first, greater than 50.8 µg/mL for the second.

Compared with `O=[N+]([O-])c1ccccc1/C=C/CN1CCSCC1`, `O=S(=O)(c1ccc(Cl)cc1)N1CCNCC1` is higher in solubility kinetic: 29.2 µg/mL (≈ 110 µM) for the first, greater than 39.1 µg/mL for the second.

Compared with `CCC(Sc1nc(C)cc(C)n1)C(=O)Nc1nccs1` (stereo not given), `CCn1ncc(S(=O)(=O)Nc2cc(Cl)ccc2C)c1C` is higher in solubility kinetic: 43.1 µg/mL (≈ 140 µM) for the first, greater than 47.1 µg/mL for the second.

`O=[N+]([O-])c1ccc2oc(C(O)c3cccc(Cl)c3)cc2c1` (stereo not given) and `N#C/C(=C(/O)c1cccc(F)c1)c1nc2ccccc2s1` are within 1.5-fold of each other in solubility kinetic: 19.4 µg/mL (≈ 63.9 µM) for the first, 17.8 µg/mL (≈ 60.1 µM) for the second.

`O=C(O)c1nccnc1C(=O)Nc1ccccc1-c1ccccc1` and `O=C(Nc1ccc(S(=O)(=O)Nc2ncccn2)cc1)c1ccccc1` cannot be ordered by solubility kinetic: greater than 47.9 µg/mL for the first, greater than 53.2 µg/mL for the second.

`CC(C)(C)c1cc(CN(CCO)CCO)c(O)c(C(C)(C)C)c1` and `OCCN(CCO)c1nc2ccccc2[nH]1` cannot be ordered by solubility kinetic: 38.7 µg/mL (≈ 120 µM) for the first, greater than 33.2 µg/mL for the second.

First: Cc1c(Cl)cccc1NC(=O)Nc1cccnc1
Second: Cc1cccc2sc(NC(=O)CCNC(=O)c3ccco3)nc12
The solubility kinetic of the first is 6.2-fold higher: 34.9 µg/mL (≈ 133 µM) for the first, 5.6 µg/mL (≈ 17 µM) for the second.

First: O=C(Nc1ccc(C2SCCS2)cc1)c1ccccc1
Second: O=C(NCc1ccccc1)c1ccc(F)c(F)c1
The solubility kinetic of the first is 25-fold lower: 1.4 µg/mL (≈ 4.64 µM) for the first, 35.5 µg/mL (≈ 144 µM) for the second.

`CCOC(=O)N1CCN(C(=O)c2cc3cc(Cl)ccc3[nH]2)CC1` and `O=C(c1cc(-c2ccc3c(c2)OCO3)on1)N1CCCCC1` are within 1.5-fold of each other in solubility kinetic: 7 µg/mL (≈ 20.8 µM) for the first, 5.7 µg/mL (≈ 19 µM) for the second.

`Cn1c(S(=O)(=O)O)nc2ccccc21` and `CCc1nc(N=C(N)N)nc2ccccc12` are within 1.5-fold of each other in solubility kinetic: 31.5 µg/mL (≈ 148 µM) for the first, 28 µg/mL (≈ 130 µM) for the second.

`N#C/C(=C(/O)c1ccco1)c1nc2ccccc2s1` and `COc1ccc(NC(=O)COC(=O)CCNC(=O)c2ccco2)cc1Cl` cannot be ordered by solubility kinetic: greater than 40.2 µg/mL for the first, greater than 57.1 µg/mL for the second.

Going from `NCCS(=O)(=O)O` to `CC(=O)c1sccc1NC(=O)CC(C)(C)CC(=O)O`, the solubility kinetic rises from 1.2 µg/mL (≈ 9.59 µM) to 32.5 µg/mL (≈ 115 µM) (27-fold).

`COc1ccc(C(C)NC(=O)C2CCCC2)cc1OC` (stereo not given) and `COc1ccccc1NC(=O)C(C)N(C)CC(=O)Nc1cccc2ccccc12.Cl` (stereo not given) cannot be ordered by solubility kinetic: greater than 41.6 µg/mL for the first, greater than 64.2 µg/mL for the second.

Going from `CCOC(=O)C1=C(C)NC(C)=C(C(=O)OCC)C1C(=O)OCC(=O)NCc1ccccc1` to `CCCC(=O)Nc1c(-c2cccc(C)c2)c(=O)c2ccccc2n1C`, the solubility kinetic falls from greater than 66.7 µg/mL to 13.1 µg/mL (≈ 39.2 µM).

`Cl.Clc1cccc(CNCCCSc2ncccn2)c1` and `Fc1cccc(Cc2noc(CN3CCOCC3)n2)c1` cannot be ordered by solubility kinetic: greater than 49.5 µg/mL for the first, greater than 41.6 µg/mL for the second.

Compared with `COc1ccc(OCC(=O)Nc2ccc(S(=O)(=O)N(C)c3ccccc3)cc2)cc1`, `CCc1nc2ccccc2c(=O)n1-c1ccccc1OC` is higher in solubility kinetic: 1.8 µg/mL (≈ 4.22 µM) for the first, greater than 42 µg/mL for the second.

Compared with `O=C(Nc1ccc2c(c1)C(=O)OC2)c1ccc(F)cc1F`, `C1=NCCc2c1[nH]c1ccccc21.[O-][Cl+3]([O-])([O-])O` is higher in solubility kinetic: 2.3 µg/mL (≈ 7.95 µM) for the first, greater than 40.6 µg/mL for the second.

Source: PubChem BioAssay AID1996
